Experimental data taken from publication PMC9204298, “Inhibiting UCH-L5: Rational Design of a Cyclic Ubiquitin-Based Peptide Inhibitor” (Frontiers in Molecular Biosciences, 2022).
Where a SMILES comes first, the peptide text is derived from it. The star is where a group is joined. Cbz = O=C(OCc1ccccc1)*

Test system: MCF7 cells, level of ubiquitinated substrates
Assay: Western blot of ubiquitinated substrates in MCF7 cells
Format: cell-based
Settings: control, n = 3, Figures 7A,B
Procedure: DMSO was used as vehicle control. Following the end of the incubation times, MCF7 cells were harvested using 3X NuPAGE SDS Sample buffer (Invitrogen, Cat# NP0007) containing β-mercaptoethanol and 1x DNAse and sonicated in Bioruptor Pico sonicator (Diagenode) (10-sec pulse on, 10 s pulse off for 10 cycles). After boiling them at 95°C for 10 min, the samples run on 4–12% SDS-PAGE agarose gel using MOPS buffer. Proteins were transferred to the nitrocellulose membrane. Ubiquitinated substrates were detected using a mouse anti-ubiquitin (P4D1) antibody (Santa Cruz, Cat# sc-8017). Mouse anti-β-actin (Sigma-Aldrich, Cat# A5441, in 1:10000 dilution) was used to detect actin as a loading control. 800CW goat anti-mouse IgG (H + L) (Li-COR, Cat# 926–32210, 1:5000) were used as secondary antibodies. The signal was detected using direct imaging by Odyssey® CLx Infrared Imaging System (LI-COR). The experiment was repeated in triplicates. The total amount of ubiquitinated substrates and the actin level was quantified using Licor Image studio densitometry software, and the total level of ubiquitinated substrates was normalized to the actin level.

Structure (SMILES) | level of ubiquitinated substrates (MG132 5 µM, 4 h) | level of ubiquitinated substrates (bAP15 1 µM, 3 h)
CC(C)C[C@@H](C=O)NC(=O)[C@H](CC(C)C)NC(=O)[C@H](CC(C)C)NC(=O)OCc1ccccc1 [MG132] (Cbz-Leu-Leu-Leu-aldehyde) | increased the level of ubiquitinated substrates | 
C=CC(=O)N1C/C(=C\c2ccc([N+](=O)[O-])cc2)C(=O)/C(=C/c2ccc([N+](=O)[O-])cc2)C1 [bAP15] |  | increased the level of ubiquitinated substrates
